# Assay results as given in publication PMC11729428, “New Potent Inhibitor of Transforming Growth Factor-Beta (TGFβ) Signaling that is Efficacious against Microsatellite Stable Colorectal Cancer Metastasis in Combination with Immune Checkpoint Therapy in Mice” (ACS Pharmacology & Translational Science, 2024).
# Experiments:
# ALK5 = details: structure-activity relationship study of Li et al. ref 16; cited from earlier work
# in vitro [1] = details: human
# Description: (§1) 5. Methods for In vitro characterizations of HYL001 […]
# (§2) Rapid equilibrium dialysis was performed in triplicates with a rapid equilibrium dialysis (RED) by Sai Life Sciences Lt. (Telangana, India). The RED device contains a dialysis membrane with a molecular weight cut -off […]
# (§3) of 8,000 Da, separating two chambers for plasma and buffer, respectively. […]
# (§4) were added to the plasma chamber, versus phosphate buffer saline (pH 7.4) to the buffer chamber. Dialysis was performed for 4 h with 100 RPM shaking at 37 °C. […]
# (§5) compounds in plasma were either frozen immediately (T0 sample), or incubated at 37 °C for 4 h without dialysis (non-dialysed), respectively.
# (§6) Following dialysis, an aliquot was removed from either chamber and diluted with equal volume of opposite matrix to nullify the matrix effect. Similarly, buffer was added to recovery and stability samples. Next, acetonitrile (containing internal standard, glipizide) was added to the mixtures for protein precipitation and vortexed for 5 minutes. The samples were centrifuged at 4000 RPM at 4 °C for 10 min and the supernatant was submitted for liquid chromatography mass spectrometry (LC-MS/MS) analysis. Samples were monitored for parent compound using multiple reaction monitoring (MRM) mode.
# (§7) The peak area ratios (PAR, analyte versus internal standard) in plasma vs bufffer were used to determine the fraction of compound bound to plasma proteins. The following equation was used to determine the extent of plasma protein binding: percent free drug = 100% x (PARbuffer / PARplasma); percent bound drug = 100 - % free drug. Recovery was calculated as 100% x (PARplasma + PARbuffer)dialysed / (PARplasma)non-dialysed; stability as 100% x (PAR)non-dialysed / (PARplasma)frozen at T0. […]
# in vitro [2] = details: rat
# Description: as §1, §2, §3, §4, §5, §6, §7
# in vitro [3] = details: mouse
# Description: as §1, §2, §3, §4, §5, §6, §7
"recovery at 4 h, 5 µM (in vitro [1]; pH 7.4) [%]","% Compound remaining at 4 hrs (in vitro [1]; plasma, 4 h, 5 µM) [%]","recovery at 4 h, 5 µM (in vitro [2]; pH 7.4) [%]","% Compound remaining at 4 hrs (in vitro [2]; plasma, 4 h, 5 µM) [%]","recovery at 4 h, 5 µM (in vitro [3]; pH 7.4) [%]","% Compound remaining at 4 hrs (in vitro [3]; plasma, 4 h, 5 µM) [%]",SMILES,IC50 (ALK5) [nM]
–,–,–,–,–,–,"Cc1cccc(-c2nn3c(c2-c2ccnc4ccc(Br)cc24)CCC3)n1 [6-Br, 6-Bromo-4-(2-(6-methylpyridin-2-yl)-5,6-dihydro-4H-pyrrolo[1,2-b]pyrazol-3-yl) Quinoline]",89
100,84.2,98.6,104.8,99.9,106.2,"CC(=O)CC(c1ccccc1)c1c(O)c2ccccc2oc1=O (stereo not shown) [Warfarin, reference compound]",–
